Test results taken from the NIST ThermoML archive (doi:10.1021/je100300s).

How the values were obtained:
[1] = refractive index (Na D-line) (dimensionless); xn = mol fraction of the nth substance listed; conditions: 101 kPa, Liquid, Standard Abbe refractometry, x2 = 0
[2] = xn = mol fraction of the nth substance listed; conditions: 101 kPa, Liquid, x2 = 0
[3] = refractive index (Na D-line) (dimensionless); conditions: 101.33 kPa, Liquid, Standard Abbe refractometry
[4] = 101 kPa, Liquid

O [water] + CC(O)CN
Conditions	mass density, [2] [kg/m3]	refractive index, [1]	viscosity, [2] [mPa·s]
293.15 K	–	1.33298	–
298.15 K	–	1.33249	0.882
303.15 K	–	1.33193	0.804
308.15 K	–	1.33136	–
313.15 K	–	1.33067	0.658
318.15 K	–	1.3299	–
323.15 K	988.03	1.32906	0.551
328.15 K	–	1.32818	–
333.15 K	983.19	1.32726	0.47
343.15 K	977.75	–	0.407

CC(O)CN (centres undefined) [1-amino-2-propanol]
Conditions	mass density, [4] [kg/m3]	refractive index, [3]	viscosity, [4] [mPa·s]
293.15 K	–	1.448	–
298.15 K	956.51	1.44609	26.68
303.15 K	952.52	1.44409	20.31
308.15 K	–	1.44211	–
313.15 K	944.42	1.44009	12.51
318.15 K	–	1.43817	–
323.15 K	936.19	1.43631	7.543
328.15 K	–	1.43405	–
333.15 K	927.84	1.43208	5.22
343.15 K	919.37	–	3.77
